{"source": "patent US20020019536A1", "about": "“NEW URETHANES, THIO AND DITHIO ANALOGUES AND THEIR USE AS INHIBITORS OF CHOLESTEROL BIOSYNTHESIS” (priority 1997, published 2002)", "key": {"[1]": {"biological_target": "T1, 2,3-epoxysqualene-lanosterol-cyclase (Rattus norvegicus, UniProt P48450)", "T1 construct": "Measuring the in-vivo Activity in the Rat after Oral Administration; from tissue; host or cells: living rat; 2,3-epoxysqualene measured in the liver", "T1 sequence (P48450 1-733)": "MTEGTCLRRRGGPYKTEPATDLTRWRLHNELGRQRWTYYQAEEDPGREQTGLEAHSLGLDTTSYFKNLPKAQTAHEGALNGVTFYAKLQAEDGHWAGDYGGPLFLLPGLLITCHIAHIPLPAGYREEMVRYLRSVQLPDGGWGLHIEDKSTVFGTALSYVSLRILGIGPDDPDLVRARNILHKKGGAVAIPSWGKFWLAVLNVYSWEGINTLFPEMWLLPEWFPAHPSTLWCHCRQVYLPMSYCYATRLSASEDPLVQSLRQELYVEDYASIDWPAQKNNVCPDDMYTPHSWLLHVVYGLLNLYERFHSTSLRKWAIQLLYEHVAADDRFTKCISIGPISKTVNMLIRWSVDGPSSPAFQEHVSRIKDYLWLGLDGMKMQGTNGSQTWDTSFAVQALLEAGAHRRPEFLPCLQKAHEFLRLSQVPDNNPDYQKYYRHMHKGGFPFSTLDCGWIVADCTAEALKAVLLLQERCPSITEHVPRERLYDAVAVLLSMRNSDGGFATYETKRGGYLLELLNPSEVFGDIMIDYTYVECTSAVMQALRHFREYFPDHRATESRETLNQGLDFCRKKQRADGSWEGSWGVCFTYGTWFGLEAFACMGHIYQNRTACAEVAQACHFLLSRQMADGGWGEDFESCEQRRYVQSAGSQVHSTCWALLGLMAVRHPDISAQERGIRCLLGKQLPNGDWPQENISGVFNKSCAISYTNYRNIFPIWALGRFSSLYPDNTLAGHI", "assay": "In-vivo activity in the rat after oral administration: 2,3-epoxysqualene level in the liver", "procedure": "II. Measuring the in-vivo Activity in the Rat after Oral Administration\nInhibiting the enzyme 2,3-epoxysqualene-lanosterol-cyclase causes an increase in the 2,3-epoxisqualene levels in the liver and plasma. The quantity of 2,3-epoxysqualene formed therefore serves as a direct measurement of the potency on the animal as a whole. The amounts were determined using the method described in J. Lipid. Res. 38, 564-575, [1997] at t=3 or 8 hours after administration of the substance in concentrations of c=0.01, 0.03, 0.1, 0.3 and 1.0 mg/kg. Table 3 which follows gives the results obtained for the abovementioned substances A, B, C, E, G, H, O and R by way of example.\nIn the control animals there were no measurable 2,3-epoxisqualene levels under these conditions."}, "[2]": {"tested_on": "HaCat cells (human keratinocytes)", "assay": "Inhibition of cell proliferation (BrdU ELISA)", "type": "cell-based", "conditions": "10^−6 mol/l, average of three measurements, given as a percentage of the control (control 100%)", "procedure": "IV. Inhibition of Cell Proliferation\nHaCat cells (human keratinocytes) are seeded at a density of 10,000 cells per well in a 96 well microtitre plate. The culture medium used is Dulbecco's modified eagle medium (DMEM) with the addition of 10% calf serum. The cells are incubated for two days in an incubator, then the test substance, dissolved in dimethyl sulphoxide and diluted with culture medium, is added. After another two days incubation, 5-bromo-2′-deoxyuridine is added and the test results are determined according to the instructions (Boehringer Mannheim, Cell proliferation ELISA, BrdU(colorimetric)). The BrdU measurement was carried out at 380-490 nm in the Plate Reader made by Bio Rad.\nThe proliferation-inhibiting activity of compounds E, G and H was investigated. The average of three measurements was calculated and the results are given as a percentage of the control (Table 5)."}, "[3]": {"assay": "Lipid reduction in the normolipaemic golden hamster", "type": "in vivo", "conditions": "compared with control group", "procedure": "III. Lipid Reduction in the Normolipaemic Golden Hamster This was determined using the method described in J. Lipid. Res. 38, 564-575, (1997). At the end of the experiment the total cholesterol, β-lipoprotein-cholesterol and HDL-cholesterol were determined and compared with the values of a control group which were fed without any test substance. The lipid-lowering activity of the abovementioned compounds E, G and I was tested."}, "[4]": {"tested_on": "14C-acetate incorporation into the steroids which can be precipitated with digitonin (cholesterol biosynthesis)", "assay": "Inhibition of 14C-acetate incorporation into the steroids which can be precipitated with digitonin", "type": "cell-based", "excerpt": "I. Measuring the Inhibition of ^14C-acetate incorporation into the steroids which can be precipitated with digitonin: The inhibitory effect was investigated using the method described in J. Lipid. Res. 37, 148-157 [1996] at test concentrations of 10^−8 and 10^−9 mol/l."}, "Rhod. rubra 49": {"tested_on": "Rhod. rubra 49", "assay": "Fungistatic activity, series dilution test", "type": "cell-based", "conditions": "Sabouraud broth, 2 to 4 days at 26° C.", "procedure": "(§1) V. Determining the Fungistatic Activity\n(§2) The fungistatic activity was determined by the series dilution test (microtitre system). Sabouraud broth was used as the nutrient medium. The inoculum amounted to about 10^4 to 10^5 CFU/ml (CFU=colony-forming units); the incubation period was 2 to 4 days at 26° C.\n(§3) The lowest concentration which allows no visible growth (minimum inhibitory concentration MIC) was determined.\n(§4) The abovementioned compounds B, E, G, I, K, L, N, Q and R were tested. The MIC is given in μg/ml."}, "[5]": {"tested_on": "Sacch. carisbergensis ATCC 9080", "assay": "Fungistatic activity, series dilution test", "type": "cell-based", "conditions": "Sabouraud broth, 2 to 4 days at 26° C.", "procedure": "as §1, §2, §3, §4"}, "Pen. notatum CBS 19746": {"tested_on": "Pen. notatum CBS 19746", "assay": "Fungistatic activity, series dilution test", "type": "cell-based", "conditions": "Sabouraud broth, 2 to 4 days at 26° C.", "procedure": "as §1, §2, §3, §4"}, "[6]": {"tested_on": "Trich. mentagrophytes ATCC 9129", "assay": "Fungistatic activity, series dilution test", "type": "cell-based", "conditions": "Sabouraud broth, 2 to 4 days at 26° C.", "procedure": "as §1, §2, §3, §4"}, "Asp. niger ATCC 16404": {"tested_on": "Asp. niger ATCC 16404", "assay": "Fungistatic activity, series dilution test", "type": "cell-based", "conditions": "Sabouraud broth, 2 to 4 days at 26° C.", "procedure": "as §1, §2, §3, §4"}, "[7]": {"tested_on": "Cand. albicans ATCC 10231", "assay": "Fungistatic activity, series dilution test", "type": "cell-based", "conditions": "Sabouraud broth, 2 to 4 days at 26° C.", "procedure": "as §1, §2, §3, §4"}}, "note": "pIC50: −log10 of the molar value."}
{"smiles": "CN(C)Cc1ccc([C@H]2CC[C@H](N(C)C(=O)Oc3ccc(Cl)cc3)CC2)cc1.Cl", "note": "[E, trans-O-(4-chlorophenyl)-N-4-[4-(dimethylaminomethyl)-phenyl]cyclohexyl-N-methylcarbamate-hydrochloride]", "values": [{"measurement": "2,3-epoxysqualene concentration in the liver (rat)", "setting": "[1]; 0.01 mg/kg oral, 3 h after administration", "value": 20.3, "unit": "µg/g"}, {"measurement": "2,3-epoxysqualene concentration in the liver (rat)", "setting": "[1]; 0.01 mg/kg oral, 8 h after administration", "value": 32.7, "unit": "µg/g"}, {"measurement": "2,3-epoxysqualene concentration in the liver (rat)", "setting": "[1]; 0.03 mg/kg oral, 3 h after administration", "value": 39.0, "unit": "µg/g"}, {"measurement": "2,3-epoxysqualene concentration in the liver (rat)", "setting": "[1]; 0.03 mg/kg oral, 8 h after administration", "value": 44.6, "unit": "µg/g"}, {"measurement": "2,3-epoxysqualene concentration in the liver (rat)", "setting": "[1]; 0.1 mg/kg oral, 3 h after administration", "value": 92.5, "unit": "µg/g"}, {"measurement": "2,3-epoxysqualene concentration in the liver (rat)", "setting": "[1]; 0.1 mg/kg oral, 8 h after administration", "value": 191.5, "unit": "µg/g"}, {"measurement": "2,3-epoxysqualene concentration in the liver (rat)", "setting": "[1]; 0.3 mg/kg oral, 3 h after administration", "value": 63.4, "unit": "µg/g"}, {"measurement": "2,3-epoxysqualene concentration in the liver (rat)", "setting": "[1]; 0.3 mg/kg oral, 8 h after administration", "value": 180.0, "unit": "µg/g"}, {"measurement": "Cell proliferation (% of control)", "setting": "[2]", "value": 19.6, "unit": "%"}, {"measurement": "HDL-cholesterol", "setting": "[3]; dose 0.5 mg/kg/day", "value": "−18.2", "unit": "%"}, {"measurement": "Total cholesterol", "setting": "[3]; dose 0.5 mg/kg/day", "value": "−22.5", "unit": "%"}, {"measurement": "β-Lipoprotein-cholesterol", "setting": "[3]; dose 0.5 mg/kg/day", "value": "−27.5", "unit": "%"}, {"measurement": "HDL-cholesterol", "setting": "[3]; dose 1.5 mg/kg/day", "value": "−24.0", "unit": "%"}, {"measurement": "Total cholesterol", "setting": "[3]; dose 1.5 mg/kg/day", "value": "−34.1", "unit": "%"}, {"measurement": "β-Lipoprotein-cholesterol", "setting": "[3]; dose 1.5 mg/kg/day", "value": "−48.4", "unit": "%"}, {"measurement": "HDL-cholesterol", "setting": "[3]; dose 4.9 mg/kg/day", "value": "−25.1", "unit": "%"}, {"measurement": "Total cholesterol", "setting": "[3]; dose 4.9 mg/kg/day", "value": "−34.3", "unit": "%"}, {"measurement": "β-Lipoprotein-cholesterol", "setting": "[3]; dose 4.9 mg/kg/day", "value": "−45.1", "unit": "%"}, {"measurement": "pIC50", "setting": "[4]; 14C-acetate incorporation", "value": 9.52}, {"measurement": "percentage inhibition of 14C-acetate incorporation", "setting": "[4]; test concentration 10^−8 mol/l", "value": "−85", "unit": "%"}, {"measurement": "percentage inhibition of 14C-acetate incorporation", "setting": "[4]; test concentration 10^−9 mol/l", "value": "−57", "unit": "%"}, {"measurement": "MIC Rhod.", "setting": "Rhod. rubra 49", "value": 16, "unit": "µg/mL"}, {"measurement": "MIC Sacc.", "setting": "[5]", "value": 128, "unit": "µg/mL"}, {"measurement": "MIC Pen.", "setting": "Pen. notatum CBS 19746", "value": 2, "unit": "µg/mL"}, {"measurement": "MIC Trich.", "setting": "[6]", "value": 2, "unit": "µg/mL"}, {"measurement": "MIC Asp.", "setting": "Asp. niger ATCC 16404", "value": 4, "unit": "µg/mL"}, {"measurement": "MIC Cand.", "setting": "[7]", "value": 16, "unit": "µg/mL"}]}
